How the values were obtained:
OATP1B3 = target: T1, OATP1B3 (Homo sapiens, UniProt Q9NPD5); assay: Cellular transport assay, HEK-293 cells expressing human OATP1B3; details: for TransportTC/TransportMC ratio (net transport ratio): 10 min; for K m / V max: 5 min incubation, concentrations in Table 1
T1 sequence (Q9NPD5 1-702): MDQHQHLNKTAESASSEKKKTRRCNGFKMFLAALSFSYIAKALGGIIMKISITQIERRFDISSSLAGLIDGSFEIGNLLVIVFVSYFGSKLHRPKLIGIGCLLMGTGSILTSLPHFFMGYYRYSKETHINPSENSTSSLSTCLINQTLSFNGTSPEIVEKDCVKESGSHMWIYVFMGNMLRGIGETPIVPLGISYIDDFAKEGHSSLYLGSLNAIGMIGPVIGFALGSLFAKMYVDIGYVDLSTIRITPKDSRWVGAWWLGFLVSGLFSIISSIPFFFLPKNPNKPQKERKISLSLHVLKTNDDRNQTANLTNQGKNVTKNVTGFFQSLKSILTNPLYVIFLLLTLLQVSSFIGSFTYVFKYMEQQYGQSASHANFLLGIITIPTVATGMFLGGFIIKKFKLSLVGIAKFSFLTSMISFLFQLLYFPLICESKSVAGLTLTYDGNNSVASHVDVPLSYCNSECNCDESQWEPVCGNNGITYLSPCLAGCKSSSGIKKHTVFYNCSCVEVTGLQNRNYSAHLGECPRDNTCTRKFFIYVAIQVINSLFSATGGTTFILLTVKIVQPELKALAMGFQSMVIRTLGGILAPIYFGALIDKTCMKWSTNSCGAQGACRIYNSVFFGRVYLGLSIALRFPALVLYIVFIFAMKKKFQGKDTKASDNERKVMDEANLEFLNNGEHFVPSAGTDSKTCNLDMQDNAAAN
Description: (§1) Briefly, HEK-293 cells were grown, at 37°C and 5% CO2, in Dulbecco’s modified Eagle’s medium, which was fortified with 10% fetal bovine serum, 1% minimal essential medium nonessential amino acids, and 1% antibiotic-antimycotic solution. A day before transfection, cells were seeded onto 24-well poly-D-lysine-coated plates at a density of 2 × 10^5 cells per well. After incubation at 37°C and 5% CO2 for 24 h, the expression plasmid and the empty vector were introduced separately into the HEK293 cells with Lipofectamine 2000 transfection reagent (Invitrogen, Carlsbad, CA, United States), according to the manufacturer’s protocol to yield transporter-expressing cells and mock cells, respectively.
(§2) Transport studies were performed 48 h after the transfection. […] Differential uptake between the transfected cells and mock cells was defined as net transport ratio (TransportTC/TransportMC ratio), where TransportTC and TransportMC are the transport rates of a test Danshen compound into transfected and mock cells, respectively. […] The determination was performed under linear uptake conditions by incubation for 5 min. Table 1 summarizes the final concentrations of the test Danshen compounds for different transporters. All the incubation samples were analyzed by liquid chromatography/mass spectrometry.
(§3) GraFit software (version 5.0; Erithacus Software Ltd, Surrey, United Kingdom) was used to determine the K m and V max values by nonlinear regression analysis of initial transport rates as a function of substrate concentration.

human OAT4 = target: T2, human OAT4 (Homo sapiens, UniProt Q9NSA0); assay: Cellular transport assay, HEK-293 cells expressing human OAT4; details: for TransportTC/TransportMC ratio (net transport ratio): 10 min; for K m: human renal apical uptake OAT4, 5 min incubation, concentrations in Table 1
T2 sequence (Q9NSA0 1-550): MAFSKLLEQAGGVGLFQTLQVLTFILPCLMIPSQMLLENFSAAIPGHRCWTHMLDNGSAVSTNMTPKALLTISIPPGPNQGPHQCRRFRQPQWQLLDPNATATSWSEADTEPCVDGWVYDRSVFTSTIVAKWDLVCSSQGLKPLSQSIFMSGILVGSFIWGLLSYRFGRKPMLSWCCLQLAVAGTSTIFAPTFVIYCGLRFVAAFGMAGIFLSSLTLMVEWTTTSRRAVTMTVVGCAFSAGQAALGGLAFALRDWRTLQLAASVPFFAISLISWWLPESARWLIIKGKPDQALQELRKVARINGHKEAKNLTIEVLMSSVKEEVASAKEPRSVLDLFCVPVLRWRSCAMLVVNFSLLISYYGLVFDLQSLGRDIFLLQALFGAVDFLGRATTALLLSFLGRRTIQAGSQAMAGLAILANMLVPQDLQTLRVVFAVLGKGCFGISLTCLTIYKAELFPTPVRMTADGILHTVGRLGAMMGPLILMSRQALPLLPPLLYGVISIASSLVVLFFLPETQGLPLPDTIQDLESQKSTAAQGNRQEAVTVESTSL
Description: as §1, §2, §3

rat Oat1 = target: T3, rat Oat1 (Rattus norvegicus, UniProt O35956); assay: Cellular transport assay, HEK-293 cells expressing rat Oat1; details: for TransportTC/TransportMC ratio (net transport ratio): 10 min; for K m: rat renal basolateral uptake Oat1, 5 min incubation, concentrations in Table 1
T3 sequence (O35956 1-551): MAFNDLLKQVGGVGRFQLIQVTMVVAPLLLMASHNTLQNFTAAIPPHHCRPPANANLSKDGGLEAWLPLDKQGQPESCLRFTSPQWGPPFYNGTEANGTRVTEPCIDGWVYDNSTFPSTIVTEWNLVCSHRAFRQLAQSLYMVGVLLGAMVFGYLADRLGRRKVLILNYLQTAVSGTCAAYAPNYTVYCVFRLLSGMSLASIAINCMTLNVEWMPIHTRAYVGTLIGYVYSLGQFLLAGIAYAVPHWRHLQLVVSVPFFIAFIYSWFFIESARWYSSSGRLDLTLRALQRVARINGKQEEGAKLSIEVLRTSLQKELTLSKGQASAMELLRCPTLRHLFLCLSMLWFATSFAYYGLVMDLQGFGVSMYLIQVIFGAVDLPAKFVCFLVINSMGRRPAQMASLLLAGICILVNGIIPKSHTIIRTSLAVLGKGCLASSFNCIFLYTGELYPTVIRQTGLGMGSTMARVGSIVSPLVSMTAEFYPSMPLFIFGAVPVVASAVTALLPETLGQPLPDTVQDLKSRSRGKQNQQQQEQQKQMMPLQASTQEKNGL
Description: as §1, §2, §3

rat Oat3 = target: T4, rat Oat3 (Rattus norvegicus, UniProt Q9R1U7); assay: Cellular transport assay, HEK-293 cells expressing rat Oat3; details: for TransportTC/TransportMC ratio (net transport ratio): 10 min; for K m: rat renal basolateral uptake Oat3, 5 min incubation, concentrations in Table 1
T4 sequence (Q9R1U7 1-536): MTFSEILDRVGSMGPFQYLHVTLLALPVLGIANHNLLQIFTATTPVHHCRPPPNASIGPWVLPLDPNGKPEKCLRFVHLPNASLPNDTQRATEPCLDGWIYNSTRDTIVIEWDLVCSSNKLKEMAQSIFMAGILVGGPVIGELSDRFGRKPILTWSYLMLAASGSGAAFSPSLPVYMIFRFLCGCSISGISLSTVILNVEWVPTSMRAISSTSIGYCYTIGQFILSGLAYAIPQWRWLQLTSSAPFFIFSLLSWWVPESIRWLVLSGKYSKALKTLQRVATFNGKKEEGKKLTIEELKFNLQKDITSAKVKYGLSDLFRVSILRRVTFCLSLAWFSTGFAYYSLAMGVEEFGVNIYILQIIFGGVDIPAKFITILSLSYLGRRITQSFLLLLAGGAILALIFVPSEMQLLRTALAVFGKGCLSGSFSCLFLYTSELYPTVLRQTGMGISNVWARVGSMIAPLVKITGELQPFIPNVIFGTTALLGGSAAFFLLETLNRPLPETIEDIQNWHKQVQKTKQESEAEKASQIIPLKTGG
Description: as §1, §2, §3

[1] = Danshen phenolic acid at 100 μM final concentration, human OATP1B3-transfected vs mock cells
[2] = human hepatic sinusoidal uptake OATP1B3
[3] = human, HEK-293 cells expressing human OATP1B3 (vs mock cells)
[4] = Danshen phenolic acid at 100 μM final concentration, human OAT4-transfected vs mock cells
[5] = Danshen phenolic acid at 100 μM final concentration, rat Oat1-transfected vs mock cells
[6] = Danshen phenolic acid at 100 μM final concentration, rat Oat3-transfected vs mock cells

| Compound | substrate of human OATP1B3 (OATP1B3) | TransportTC/TransportMC ratio (net transport ratio) (OATP1B3; [1]) | K m (OATP1B3; [2]) [µM] | V max (OATP1B3; [2]) [pmol/min/mg protein] | TransportTC/TransportMC ratio (net transport ratio) (human OAT4; [4]) | TransportTC/TransportMC ratio (net transport ratio) (rat Oat1; [5]) | K m (rat Oat1) [µM] | substrate of rat Oat3 (rat Oat3) | TransportTC/TransportMC ratio (net transport ratio) (rat Oat3; [6]) | K m (rat Oat3) | also measured |
| --- | --- | --- | --- | --- | --- | --- | --- | --- | --- | --- | --- |
| O=C(O)Cc1c(/C=C/C(=O)O[C@H](Cc2ccc(O)c(O)c2)C(=O)O)ccc(O)c1O [Salvianolic acid D, salvianolic acid D] | substrates | 5.83 ± 0.49 | 570 ± 79 | 98.5 ± 4.8 | 2.87 ± 0.09 | 11.5 ± 2.9 | 24.4 ± 3.3 | not of rat Oat3 | 1.41 ± 0.36 | – | microsomal CLint (OATP1B3; [3]): 0.17 µL/min/mg; microsomal CLint (rat Oat1; rat): 4.72 µL/min/mg |
| O=C(O)C(O)Cc1ccc(O)c(O)c1 (centres unmarked) [Tanshinol, tanshinol] | – | – | – | – | – | – | 154 ± 13 | – | – | 3,760 ± 907 μM | K m (human OAT4): 3,442 ± 940 μM; microsomal CLint (rat Oat1; rat, other cell line): 4.13 µL/min/mg; microsomal CLint (rat Oat3; rat, other cell line): 0.07 µL/min/mg |
| O=C(/C=C/c1ccc(O)c2c1[C@H](C(=O)O)[C@@H](c1ccc(O)c(O)c1)O2)O[C@H](Cc1ccc(O)c(O)c1)C(=O)O [Lithospermic acid, lithospermic acid] | substrates | 8.02 ± 0.52 | 182 ± 26 | 9.59 ± 0.51 | 2.91 ± 0.17 | 1.36 ± 0.35 | – | – | 0.94 ± 0.23 | – | microsomal CLint (OATP1B3; [3]): 0.05 µL/min/mg |
| salvianolic acid B | substrates | 16.2 ± 0.6 | 13.0 ± 1.6 | 11.0 ± 0.4 | 0.95 ± 0.23 | 1.56 ± 0.67 | – | – | 1.12 ± 0.41 | – | CLint (OATP1B3; [2]): 0.85 μL/min/mg protein |
| O=C(O)c1ccc(O)c(O)c1 [Protocatechuic acid, protocatechuic acid] | – | 0.75 ± 0.09 | – | – | 1.56 ± 0.46 | 104 ± 20 | 110 ± 19 | – | 16.1 ± 2.8 | 117 ± 27 µM | microsomal CLint (rat Oat1; rat): 4.07 µL/min/mg; microsomal CLint (rat Oat3; rat): 0.57 µL/min/mg |
| O=C(/C=C/c1ccc(O)c(O)c1/C=C/c1ccc(O)c(O)c1)O[C@H](Cc1ccc(O)c(O)c1)C(=O)O [Salvianolic acid A, salvianolic acid A] | not a substrate | – | – | – | – | – | – | not substrates | – | – | TransportTC/TransportMC ratio (net transport ratio) (OATP1B3; human, 100 μM): 1.02 ± 0.31; TransportTC/TransportMC ratio (net transport ratio) (human OAT4; human, 100 μM): 1.56 ± 0.23; substrate of rat Oat1 (rat Oat1): not substrates; TransportTC/TransportMC ratio (net transport ratio) (rat Oat1; rat, 100 μM): 1.13 ± 0.64; TransportTC/TransportMC ratio (net transport ratio) (rat Oat3; rat, 100 μM): 1.09 ± 0.35 |
| O=C(/C=C/c1ccc(O)c(O)c1)O[C@H](Cc1ccc(O)c(O)c1)C(=O)O [Rosmarinic acid, rosmarinic acid] | substrates | – | – | – | – | – | 59.2 ± 4.7 | substrates | – | 24.0 ± 4.2 µM | TransportTC/TransportMC ratio (net transport ratio) (OATP1B3; human, 100 μM): 7.28 ± 0.58; microsomal CLint (OATP1B3; human, other cell line): 0.09 µL/min/mg; substrate of human OAT4 (human OAT4): relatively weak substrates; K m (human OAT4): 325 ± 53 µM; TransportTC/TransportMC ratio (net transport ratio) (human OAT4; human, 100 μM): 7.27 ± 0.77; microsomal CLint (human OAT4; human, other cell line): 0.15 µL/min/mg; substrate of rat Oat1 (rat Oat1): substrates; TransportTC/TransportMC ratio (net transport ratio) (rat Oat1; rat, 100 μM): 150 ± 46; microsomal CLint (rat Oat1; rat, other cell line): 3.47 µL/min/mg; TransportTC/TransportMC ratio (net transport ratio) (rat Oat3; rat, 100 μM): 4.45 ± 1.12; microsomal CLint (rat Oat3; rat, other cell line): 0.15 µL/min/mg |

— paper PMC9127186, “Molecular Basis Underlying Hepatobiliary and Renal Excretion of Phenolic Acids of Salvia miltiorrhiza Roots (Danshen)” (Frontiers in Pharmacology, 2022)
